# In patent publication US20120149631A1 (priority 2009, published 2012):
# Where two headings read alike, the source gives them in different places. No end group written: not given here.
# Legend:
# [1] = system: A. actinomycetemcomitans; assay: microbe, parasite or virus in culture; assay type: cell-based
# [2] = system: K12 E. coli (ATCC #25404)
# [3] = system: A. actinomycetemcomitans Y4
# [4] = system: P. aeruginosa biofilms; conditions: Overhage 2008; cited from earlier work
# [5] = system: F. novicida biofilm; assay type: cell-based, F. novicida (F. tularensis novicida)
# [6] = system: A. actinomycetemcomitans; conditions: cited from earlier work
# [7] = system: F. novicida; conditions: 24 h
# [8] = system: P. aeruginosa; conditions: P. aeruginosa (ATCC 27853); cited from earlier work
# [9] = system: E. coli (ATCC 25922); conditions: cited from earlier work
# [10] = Aggregatibacter actinomycetemcomitans
# [11] = Aggregatibacter actinomycetemcomitans, read-out: EC50 in μM
# [12] = read-out: EC50 uM, E. coli, 3 h incubation, CFU enumeration
molecule,measurement,setting,value
CC[C@H]1OC(=O)[C@H](C)[C@@H](O[C@H]2C[C@@](C)(OC)[C@@H](O)[C@H](C)O2)[C@H](C)[C@@H](O[C@@H]2O[C@H](C)C[C@H](N(C)C)[C@H]2O)[C@](C)(O)C[C@@H](C)CN(C)[C@H](C)[C@@H](O)[C@]1(C)O [azithromycin],EC50,[1]; [10],34.4 µg/mL
same,EC50,[1]; [11],45.9 µM
KRFKKFFKKPK-NH2 [ATRA-1P],EC50,[2]; [12],4.76 µM
CC[C@H](C)[C@H](NC(=O)[C@H](CCCCN)NC(=O)[C@H](CCC(=O)O)NC(=O)[C@H](CCCCN)NC(=O)[C@H](CO)NC(=O)[C@H](CCCCN)NC(=O)[C@H](CCCNC(=N)N)NC(=O)[C@H](Cc1ccccc1)NC(=O)[C@H](Cc1ccccc1)NC(=O)[C@H](CC(=O)O)NC(=O)CNC(=O)[C@H](CC(C)C)NC(=O)[C@@H](N)CC(C)C)C(=O)NCC(=O)N[C@@H](CCCCN)C(=O)N[C@@H](CCC(=O)O)C(=O)N[C@@H](Cc1ccccc1)C(=O)N[C@@H](CCCCN)C(=O)N[C@@H](CCCNC(=N)N)C(=O)N[C@H](C(=O)N[C@H](C(=O)N[C@@H](CCC(N)=O)C(=O)N[C@@H](CCCNC(=N)N)C(=O)N[C@H](C(=O)N[C@@H](CCCCN)C(=O)N[C@@H](CC(=O)O)C(=O)N[C@@H](Cc1ccccc1)C(=O)N[C@@H](CC(C)C)C(=O)N[C@@H](CCCNC(=N)N)C(=O)N[C@@H](CC(N)=O)C(=O)N[C@@H](CC(C)C)C(=O)N[C@H](C(=O)N1CCC[C@H]1C(=O)N[C@@H](CCCNC(=N)N)C(=O)N[C@H](C(=O)N[C@@H](CCC(=O)O)C(=O)N[C@@H](CO)C(=O)O)[C@@H](C)O)C(C)C)[C@@H](C)CC)C(C)C)[C@@H](C)CC [LL-37],EC50 ug/mL,[3],6.24 µg/mL
same,EC50,[3],6.224 µg/mL
same,EC50 (μg/mL),[3],6.244 µg/mL
same,EC50,[3]; 24 h,1.39 µM
same,EC50,[2]; E. coli K12,0.519 µg/mL
same,EC50,"[2]; E. coli, 3 h incubation, CFU enumeration",0.514 µg/mL
same,EC50,[2]; [12],0.114 µM
same,concentration inhibiting formation of biofilms,[4],0.05 µg/mL
same,concentration with significant inhibition of biofilm formation,[5],≤ 3.8 ng/mL
same,inhibition of growth,[5],no inhibition of growth
same,ED99,[6],8.2 µg/mL
same,MBC,[6],above 100 μg/mL
same,MIC,[7],greater than 250 μg/ml
GGLRSLGRKILRAWKKYGPIIVPIIRIG [BMAP-28],EC50,[3]; 24 h,0.215 µM
gentamicin,EC50 (μg/mL),[1],1.597 µg/mL
same,EC50,[1]; read-out: EC50,3.34 µM
CC1(C)S[C@@H]2[C@H](NC(=O)[C@H](N)c3ccccc3)C(=O)N2[C@H]1C(=O)O [ampicillin],EC50,[1]; [10],75 µg/mL
same,EC50,[1]; [11],215 µM
GLLSRLRDFLSDRGRRLGEKIERIGQKIKDLSEFFQS [PMAP-37],EC50,[3]; 24 h,1.25 µM
same,MIC,[8],4 µM
same,MIC,[9],1 µM
CCC[C@@H]1C[C@@H](C(=O)N[C@@H]([C@H]2O[C@H](SC)[C@H](O)[C@@H](O)[C@H]2O)[C@H](C)Cl)N(C)C1 [clindamycin],EC50,[1]; [10],> 250 µg/mL
same,EC50,[1]; [11],> 542 µM
KRAKKFFKKLK-NH2 [ATRA-1A],EC50,[2]; [12],0.659 µM
Cc1ncc([N+](=O)[O-])n1CCO [metronidazole],EC50,[1]; [10],19.5 µg/mL
same,EC50,[1]; [11],114 µM
"hBD-4: antimicrobial listed in Table 6, not further described (EFELDRICGYGTARCRKKCRSQEYRIGRCPNTYACCLRKWDESLLNRTKP; UniProt Q8WTQ1 23-72, looked up)",EC50 (μg/mL),[3],≥ 100 µg/mL
same,EC50,[3]; read-out: EC50 in μM,> 22.9 µM
RLKELITTGGQKIGEKIRRIGQRIKDFFKNLQPREEKS [K9CATH],EC50,[3]; 24 h,0.111 µM
CC1(C)S[C@@H]2[C@H](NC(=O)[C@H](N)c3ccc(O)cc3)C(=O)N2[C@H]1C(=O)O [amoxicillin],EC50,[1]; [10],29.6 µg/mL
same,EC50,[1]; [11],80.9 µM
GLRKRLRKFRNKIKEKLKKIGQKIQGLLPKLAPRTDY [CAP-18],EC50,[3]; 24 h,1.59 µM
